According to US20260306490A1, “PIM1 INHIBITOR FOR TREATING MYELOPROLIFERATIVE NEOPLASMS” (Sumitomo Pharma America, Inc., priority 2022, published 2026):
Like-named read-outs stand apart in the source and are kept apart here.

How the values were obtained:
[1] = test system: R/R MM; conditions: n = 79; cited from earlier work
[2] = test system: R/R MF; conditions: cited from earlier work
[3] = test system: human megakaryocyte progenitors (CFU-Mk); experiment: Colony forming cell assay, human megakaryocyte progenitor (CFU-Mk) proliferation; format: cell-based; conditions: for IC50: Homo sapiens, read-out: IC50, total CFU-Mk (megakaryocyte progenitor proliferation)
Procedure: (§1) In addition, 5-FU was evaluated at 1.0, 0.1 and 0.01 μg/mL as a positive control for toxicity.
(§2) Normal human bone marrow light density cells (lot #0210901), derived from normal bone marrow, (Lonza, Maryland) and qualified at ReachBio, were stored at −152° C. until required for the assay. On the day of the experiment, the cells were thawed rapidly, diluted in 10 mL of Iscove's modified Dulbecco's medium containing 10% fetal bovine serum (IMDM+10% FBS) and washed by centrifugation (approximately 1500 r.p.m. for 10 minutes at room temperature). The supernatant was discarded and the cell pellets were resuspended in a known volume of IMDM+10% FBS. A cell count (3% glacial acetic acid) and viability assessment (trypan blue exclusion test) was performed for the bone marrow sample.
(§3) Clonogenic progenitors of human megakaryocyte (CFU-Mk) were assessed in a collagen-based media formulation containing rhIL-3 (10 ng/mL), rhIL-6 (10 ng/mL), and Tpo (50 ng/mL). Clonogenic progenitors of the human erythroid (CFU-E and BFU-E), myeloid (CFU-GM), and megakaryocyte (CFU-Mk) lineages were set up in the media formulations described above. Individually, the test compounds were added to the medium to give the final desired concentrations (10, 3.33, 1, 0.333, 0.1, 0.0333, 0.01 and 0.00333 μM). […] Solvent control cultures (containing no compound but 0.1% DMSO) as well as standard controls (containing no compound and no DMSO) were also initiated. Once introduced into the matrices, the tubes were vortexed to ensure an equal distribution throughout.
(§4) Human myeloid and erythroid progenitor assays were initiated at 1.2×10^4 cells per culture (lot #0210921) and the human megakaryocyte assays were initiated at 1.2×10^5 cells per culture (lot #0210921). Following 14 days in culture, erythroid and myeloid colonies were assessed microscopically in situ and scored by trained personnel. The colonies were divided into the following categories based on size and morphology: CFU-E, BFU-E, CFU-GM, and CFU-GEMM. The human megakaryocyte cultures were transferred from the 35 mm dishes to labeled glass slides, fixed with methanol/acetone fixative, and then stained with anti-human CD41 antibody and an alkaline phosphate detection system according to manufacturers' instructions. The colonies were assessed microscopically and scored by trained personnel and divided into the following categories based on size: CFU-Mk (3-20), CFU-Mk (21-49), and CFU-Mk (≥50).
(§5) Statistical analysis: The mean±standard deviation of three replicate cultures was calculated for both erythroid and myeloid progenitors. Two-tailed standard t-tests were performed to assess if there was a difference in the number of colonies generated between solvent control and treated cultures. Due to the potential subjectivity of colony enumeration, a p value of less than 0.01 is deemed significant. To calculate the concentration of 50% inhibition of colony growth (IC50) for each compound, a dose response curve was generated plotting the log of the compound concentration versus the percentage of control colony growth using GraphPad Prism 9 software.
Other than the test compounds being combined, the only change from the method in Example 1 was a 0.2% DMSO solvent control instead of 0.1% DMSO. The results are provided in FIGS. 2A-4C (FIGS. 2A-2C are human megakaryocytes (CFU-MK), FIGS. 3A-3C are human erythroid (CFU-E, BFU-E), and FIGS. 4A-4C are human granulocyte-monocyte (CFU-GM).

[4] = test system: MF patients; conditions: cited from earlier work
[5] = test system: human myeloid progenitors (CFU-GM); experiment: Colony forming cell assay, human myeloid (granulocyte-monocyte, CFU-GM) progenitor proliferation; format: cell-based; conditions: single agent; for IC50: Homo sapiens, 336 h, 14 days, CFU-GM; for concentrations at which myeloid progenitor proliferation was (significantly, additionally) inhibited: vs 0.1% DMSO solvent control, p<0.01
Procedure: (§6) Clonogenic progenitors of human erythroid (CFU-E, BFU-E), granulocyte-monocyte (CFU-GM), and multipotential (CFU-GEMM) lineages were assessed in a semi-solid methylcellulose-based media formulation containing rhIL-3 (10 ng/mL), rhGM-SCF (10 ng/mL), rhSCF (50 ng/mL), and Epo (3 U/mL).
as §1, §2, §3, §4, §5
(§7) Erythroid (CFU-E and BFU-E) and myeloid (CFU-GM) colony enumeration was performed by trained personnel. In addition, the distribution of colony types as well as general colony and cellular morphology was analyzed. The variance in colony number detected in replicate cultures was representative of the historical coefficient of variation for colony enumeration using these types of assays. The number and distribution of colonies detected in the solvent control (0.1% DMSO for single agents) was no different from the standard control (containing no compound and no DMSO). […]

[6] = test system: human erythroid progenitors (CFU-E, BFU-E); experiment: Colony forming cell assay, human erythroid progenitor (CFU-E, BFU-E) proliferation; format: cell-based; conditions: 336 h, single agent, 14 days, CFU-E and BFU-E
Procedure: as §6, §1, §2
Clonogenic progenitors of human megakaryocyte (CFU-Mk) were assessed in a collagen-based media formulation containing rhIL-3 (10 ng/mL), rhIL-6 (10 ng/mL), and Tpo (50 ng/mL). Clonogenic progenitors of the human erythroid (CFU-E and BFU-E), myeloid (CFU-GM), and megakaryocyte (CFU-Mk) lineages were set up in the media formulations described above. Individually, the test compounds were added to the medium to give the final desired concentrations (10, 3.33, 1, 0.333, 0.1, 0.0333, 0.01 and 0.00333 μM). […]
(§8) Human myeloid and erythroid progenitor assays were initiated at 1.2×10^4 cells per culture (lot #0210921) and the human megakaryocyte assays were initiated at 1.2×10^5 cells per culture (lot #0210921). Following 14 days in culture, erythroid and myeloid colonies were assessed microscopically in situ and scored by trained personnel. […] The colonies were assessed microscopically and scored by trained personnel and divided into the following categories based on size: CFU-Mk (3-20), CFU-Mk (21-49), and CFU-Mk (≥50).
(§9) Statistical analysis: The mean±standard deviation of three replicate cultures was calculated for both erythroid and myeloid progenitors. […]
as §7

[7] = test system: human myeloid, erythroid and megakaryocyte progenitors; experiment: Colony forming cell assays taken together (erythroid, myeloid, megakaryocyte progenitors); format: cell-based; conditions: single agents compared
Procedure: as §6, §1
Normal human bone marrow light density cells (lot #0210901), derived from normal bone marrow, (Lonza, Maryland) and qualified at ReachBio, were stored at −152° C. until required for the assay. […]
Clonogenic progenitors of human megakaryocyte (CFU-Mk) were assessed in a collagen-based media formulation containing rhIL-3 (10 ng/mL), rhIL-6 (10 ng/mL), and Tpo (50 ng/mL). […]
as §8, §9

[8] = ≥50 × 10^9/L PLT, regimen RUX+Paraclisib
[9] = MOMENTUM, monotherapy 200 mg QD, N = 195
[10] = PERSIST 2, monotherapy 200 mg BID, N = 106
[11] = COMFORT 1, monotherapy 5-25 mg BID, N = 155

## C[C@@H]1C[C@H](N)C[C@H](c2ccncc2NC(=O)c2ccc(F)c(-c3c(F)cccc3F)n2)C1 [PIM447]
[1]
  Hem AE, G3+ anemia: G3+ anemia (20%),
  Hem AE, G3+ neutropenia: (20%)
  Hem AE, G3+ thrombocytopenia: (33%)
  Non-hem AE, G3+ diarrhea: (6.3%),
  Non-hem AE, pneumonia: pneumonia (7.6%)

## CCOc1c([C@H](C)n2nc(C)c3c(N)ncnc32)cc(Cl)c(F)c1[C@@H]1CNC(=O)C1 [Parsaclisib, parsaclisib]
[2]; [8]
  SVR35 at Week 24: 3%
  TSS50 at Week 24: 11%

## Cc1noc2c1-c1ccccc1C(c1ccc(Cl)cc1)=N[C@H]2CC(N)=O [Pelabresib, pelabresib]
[2]; ≥75 × 10^9/L PLT, monotherapy
  SVR35 at Week 24: 11%
  TSS50 at Week 24: 28%

## N#CCNC(=O)c1ccc(-c2ccnc(Nc3ccc(N4CCOCC4)cc3)n2)cc1 [momelotinib]
[3]; single agent
  IC50: 300 nM
[4]; [9]
  TEAE Anemia, All Gr: 99%
  TEAE Anemia, ≥3 Gr: 61%
  TEAE Neutropenia, All Gr: 29%
  TEAE Neutropenia, ≥3 Gr: 12%
  TEAE Thrombocytopenia, All Gr: 76%
  TEAE Thrombocytopenia, ≥3 Gr: 28%
[2]; ≥25 × 10^9/L PLT, monotherapy
  SVR35 at Week 24: 23%
  TSS50 at Week 24: 25%
[5]
  IC50: 260 nM
  concentrations at which myeloid progenitor proliferation was (significantly, additionally) inhibited: 1.0 µM
[6]
  IC50: 1600 nM

## C1=C/COCc2cc(ccc2OCCN2CCCC2)Nc2nccc(n2)-c2cccc(c2)COC/1 [pacritinib]
[3]; single agent
  IC50: 340 nM
[4]; [10]
  TEAE Anemia, All Gr: 24%
  TEAE Anemia, ≥3 Gr: 22%
  TEAE Neutropenia, ≥3 Gr: 7%
  TEAE Thrombocytopenia, All Gr: 34%
  TEAE Thrombocytopenia, ≥3 Gr: 32%
[2]; <50 × 10^9/L PLT, monotherapy
  SVR35 at Week 24: 29%
[5]
  IC50: 170 nM
  concentrations at which myeloid progenitor proliferation was (significantly, additionally) inhibited: 0.1 µM
[6]
  IC50: 280 nM

## N#CC[C@H](C1CCCC1)n1cc(-c2ncnc3[nH]ccc23)cn1 [ruxolitinib]
[7]
  relative potency of inhibition of progenitor proliferation: most potent
[3]; single agent
  IC50: 200 nM
[3]; single agent, vs solvent control
  concentrations at which total CFU-Mk was (significantly) inhibited: ≥ 0.033 µM
[3]; single agents compared
  relative potency of inhibition of megakaryocyte progenitors: most potent
[4]; [11]
  TEAE Anemia, All Gr: 96%
  TEAE Anemia, ≥3 Gr: 45%
  TEAE Neutropenia, All Gr: 19%
  TEAE Neutropenia, ≥3 Gr: 7%
  TEAE Thrombocytopenia, All Gr: 70%
  TEAE Thrombocytopenia, ≥3 Gr: 13%
[5]
  IC50: 100 nM
[6]
  IC50: 110 nM
